From US4778796A, “ω-(3-pyridyl)alkenamide derivatives and anti-allergenic pharmaceutical compositions containing same” (Dainippon Pharmaceutical Co., Ltd., priority 1985, dated 1988)
Where two headings read alike, the source gives them in different places.

Key:
[1] = Acute lethal toxicity in mice; conditions: mouse, in vivo; oral, mortality observed for two weeks
Experimental: Test 3 Acute lethal toxicity in mice
Test compounds were suspended in a 0.5% aqueous tragacanth solution. LD50 values were calculated according to the method of Litchfield and Wilcoxon [cf. J. Pharmacol. Exp. Ther., 96, 99 (1949)].

human basophils = experiment: Inhibitory effect on histamine release induced by anti-human IgE antibody from healthy human basophils; type: cell-based
Experimental: (3) Inhibitory effect on histamine release induced by anti-human IgE antibody from healthy human basophils:
Basophils from nonallergic volunteers were collected by the method of Levy and Osler [cf. […] The cells were washed once with a cold Tris-A buffer at pH 7.4 (25 mM Tris, 120 mM NaCl, 5 mM KCl and 0.03% human serum albumin) containing 4 mM EDTA and twice with Tris-A buffer. After washing, the cells were resuspended at 5-10×10^6 leukocytes/ml in Tris-ACM buffer at pH 7.6 (Tris-A buffer, 0.6 mM CaCl2 and 1 mM MgCl2). One ml of the cell suspension was incubated with 0.1 ml of a solution of test compound or vehicle for 15 minutes at 37° C., and then for further 45 minutes with 0.1 ml of anti-human IgE antibody. After ice-cooling, the reaction mixtures were centrifuged at 1,200 rpm for 8 minutes at 4° C. The supernatant fluids and the cells were analysed separately for histamine by a modification of the spectrophotofluorometric technique of Shore et al. [cf. […] Histamine release rate was calculated according to the following equation. [formula] A: total histamine (supernatant+cell) B: supernatant histamine without anti-IgE
C: supernatant histamine with anti-IgE
Inhibitory rate was calculated from histamine release rates without vs. with test compound.

experimental asthma = experiment: Inhibitory effect on experimental asthma in rats; type: in vivo, rat (male Wistar); conditions: Rattus norvegicus, po, 1 hour before antigen challenge
Experimental: (2) Inhibitory effect on experimental asthma in rats: This test was carried out by the method of Church and Miller [cf. Brit. […] Male Wistar rats (200-250 g) were sensitized by an intraperitoneal injection of 1 ml of a 0.01% egg albumin solution containing 1 mg of Al(OH)3. Two weeks later, the rats were anesthetized with 1.3 g/kg of urethane. The trachea and jugular vein were cannulated. Respiratory volume and velocity were measured by attaching one end of the tracheal cannula to respiratory volume meter connected to a carrier amplifier and an integrator. The rats were challenged by an intravenous injection of 4 mg/kg of egg ablumin 30 minutes after the anesthesia. Test compounds, dissolved or suspended in a 0.5% aqueous tragacanth solution, were administered orally 1 hour before the antigen challenge. Each group of 4 rats was used for each dose of the test compound. ED50 values were calculated from the best fit linear regression line of inhibitory rates of respiratory volume and velocity in each dose.

5-lipoxygenase = biological target: T1, 5-lipoxygenase (Cavia porcellus, UniProt A0A286X958); experiment: Inhibitory effect on 5-lipoxygenase activity in guinea pig leukocytes; type: biochemical, guinea pig (male Hartley); conditions: read-out: 5-Lipoxygenase inhibit. activity, Inhibition
T1 construct: The cytosol fraction of peritoneal exudate cells from male Hartley guinea pigs (400-700 g) was used as 5-lipoxygenase; from tissue; host or cells: cytosol fraction of peritoneal exudate cells (leukocytes) of male Hartley guinea pigs
T1 sequence (A0A286X958 1-674): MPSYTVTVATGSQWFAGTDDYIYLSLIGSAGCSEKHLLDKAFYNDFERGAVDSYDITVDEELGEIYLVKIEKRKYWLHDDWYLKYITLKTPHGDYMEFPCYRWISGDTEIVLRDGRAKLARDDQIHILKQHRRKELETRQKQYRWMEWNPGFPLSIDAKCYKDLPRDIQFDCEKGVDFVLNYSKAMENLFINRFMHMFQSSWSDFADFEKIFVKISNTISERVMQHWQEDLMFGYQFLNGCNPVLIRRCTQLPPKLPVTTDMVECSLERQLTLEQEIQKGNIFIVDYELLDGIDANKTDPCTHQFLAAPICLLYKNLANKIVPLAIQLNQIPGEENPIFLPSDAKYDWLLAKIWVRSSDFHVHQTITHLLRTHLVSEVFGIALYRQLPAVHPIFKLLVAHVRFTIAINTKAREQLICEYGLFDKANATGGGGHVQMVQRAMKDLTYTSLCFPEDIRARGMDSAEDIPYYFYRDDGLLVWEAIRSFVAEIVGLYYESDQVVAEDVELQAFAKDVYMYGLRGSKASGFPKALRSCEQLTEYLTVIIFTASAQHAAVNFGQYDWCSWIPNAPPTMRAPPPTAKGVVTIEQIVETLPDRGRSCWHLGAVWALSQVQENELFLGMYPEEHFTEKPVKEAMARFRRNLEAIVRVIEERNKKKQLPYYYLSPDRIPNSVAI
Experimental: (1) Inhibitory effect on 5-lipoxygenase activity in guinea pig leukocytes:
This test was carried out by the method of Miyamoto and Obata (cf. "Perspectives in Prostaglandin Research," ed. by Y. Shiokawa et al., Excepta Medica, Amsterdam-Oxford-Princeton, 1983, p78) with minor modifications.
The cytosol fraction of peritoneal exudate cells from male Hartley guinea pigs (400-700 g) was used as 5-lipoxygenase. The standard reaction mixture contained 50 mM potassium phosphate buffer, 1 mM CaCl2, 1 mM glutathione, 1 mM adenosine triphosphoric acid, 10 μM indomethacin and the enzyme. The mixture was incubated for 5 minutes at 30° C. after addition of [1-^14 C]arachidonic acid (0.02 μCi). The reaction was terminated by addition of 0.6 ml of the cold organic solvents (diethyl ether/methanol/0.2M citric acid=30/4/1). The organic layer (300 μl) was applied onto a precoated silica gel 60F254 glass plate (E. Merck, West Germany). Radioactivity on the plate was monitored by a radiochromatogram scanner (Packard, U.S.A.). 5-Lipoxygenase activity was calculated according to the following equation. [formula]
The effects of the test compounds were expressed in terms of percent inhibition.

Q: For `Cc1ccc(C=CC(=O)NCCCCN2CCN(C(c3ccccc3)c3ccccc3)CC2)cn1` [Example 2, N-[3-(6-methyl-3-pyridyl)acryloyl]-4-(4-diphenylmethyl-1-piperazinyl)butylamine], which LD50 at 336 h [1] is on record?
A: 601 mg/kg

Q: And the IC50 (human basophils; anti-human IgE antibody, human basophils, read-out: Histamine release inhibit. IC50)?
A: 34 µM

Q: What about the “ability to inhibit histamine release (in words)” value (human basophils; compared with ketotifen fumarate) of the same molecule?
A: superior to ketotifen fumarate in the ability to inhibit histamine release

Q: What about the ED50 (experimental asthma; respiratory velocity, read-out: ED50, respiratory velocity) of the same molecule?
A: 5.5 mg/kg

Q: What about the ED50 (experimental asthma; respiratory volume, read-out: ED50, respiratory volume) of the same molecule?
A: 14.4 mg/kg

Q: What about the inhibition at 30 µM (5-lipoxygenase; 3 × 10^-5 M) of the same molecule?
A: 87.2%

Q: What about the inhibition at 10 µM (5-lipoxygenase; 10^-5 M) of the same molecule?
A: 45.7%
